From EP0162413A2, “Polyamine for use as a medicine in the treatment of neoplasms” (MERRELL DOW PHARMACEUTICALS INC., priority 1984, dated 1985)

Assays:
HeLa Cells [1] = assay: Growth and mitotic index of HeLa cells in culture (norspermidine); assay type: cell-based, Human; details: 72 hours, 37°C
HeLa Cells [2] = assay: Polyamine levels of HeLa cells in culture (norspermidine); assay type: cell-based, Human
L1210 Leukemia [3] = assay: Survival of mice with L1210 leukemia (norspermidine, DFMO); assay type: in vivo; details: Norspermidine i.p. 50 mg/kg/day day 1 to 7; DFMO 2% solution in drinking water (approximately 3 g/kg)
Protocol: (§1) 1 x 10^5 L1210 leukemic cells per animal were innoculated i.p. on day 0 and drug treatments were started on day 1. DFMO was administered as 2% solution in drinking water (approximately 3 g/kg based on fluid intake). Norspermidine was administered i.p. at 50 mg/kg/day from day 1 to 7. Polyamine concentrations were determined on cells collected from treated and control animals on day 4. ND: not detectable; [formula]

L1210 Leukemia [4] = assay: Polyamine levels of L1210 leukemia cells collected from treated mice; assay type: in vivo; details: L1210 cells collected on day 4; Norspermidine i.p. 50 mg/kg/day; DFMO 2% in drinking water
Protocol: as §1

Lewis Lung Tumor (3LL) = assay: Growth of Lewis lung tumor (3LL) in mice (DFMO, norspermidine); assay type: in vivo; details: 3LL s.c.; Norspermidine i.p. 50 mg/kg/day day 1 to 14; DFMO 2% in drinking water; tumors weighed at end of 18 days
Protocol: 1 x 10^5 3LL cells per animal were injected s.c. in the intrascapular region of the mice on day 0. Drug treatments were started on day 1. DFMO was administered as a 2% solution in drinking water (approximately 3 g/kg based on fluid intake). Norspermidine was administered i.p. 50 mg/kg/day from day 1 to 14. At the end of 18 days, animals were sacrificed, tumors disected and weighed.

B16 Melanoma [5] = assay: Survival of B16 melanoma bearing mice (DFMO, norspermidine); assay type: in vivo; details: B16 i.p.; Norspermidine i.p. 50 mg/kg/day day 1 to 7; DFMO 2% in drinking water
Protocol: 1 x 10^5 B16 melanoma cells per animal were injected i.p. on day 0. Drug treatments were started on day 1. DFMO was administered as a 2% solution in drinking water (approximately 3 g/kg based on fluid intake). Norspermidine was administered i.p. at 50 mg/kg/day starting day 1 to 7. [formula]

[6] = test system: Human Cervical Cancer (HeLa); assay: Growth of HeLa cells in culture (N,N'-bis(3-aminopropyl)-1,8-octanediamine); assay type: cell-based; details: 72 hours, 37°C
Protocol: (§2) HeLa cells and B16 melanoma cells were plated at a density of 1 x 10^5/plate (35 mm) and incubated overnight. Different concentrations of the compound in regular medium --were added and cell growth was determined after 72 hours of incubation at 37°C.

[7] = test system: Mouse Melanoma (B16) Cells; assay: Growth of B16 melanoma cells in culture (N,N'-bis(3-aminopropyl)-1,8-octanediamine); assay type: cell-based; details: 72 hours, 37°C
Protocol: as §2

L1210 Leukemia [8] = assay: Antitumor activity against L1210 leukemia in mice, survival (N,N'-bis(3-aminopropyl)-1,8-octanediamine); assay type: in vivo
Protocol: Treatment Survival (Days) % T/C Control 7.5 ^± 0.5 Compound 25 mg/kg^* 16.0 ^± 1.5 213.3 6.26 mg/kg^** 27 ^± 3.0 360.0 1 x 10^5 L1210 leukemic cells/animal were inoculated i.p. on day 0 and drug treatments were started as follows: * N,N'-bis(3-aminopropyl)-1,8-octanediamine was administered i.p. at 25 mg/Kg/day. from day 1-7. ^** The compound was administered i.p. at 6.25 mg/kg 4 times a day, every three hours starting at 8:30 a.m. to 5:30 p.m. from days 3-7. [formula]

B16 Melanoma [9] = assay: Antitumor activity against B16 melanoma in mice, tumor weight; assay type: in vivo; details: day 1-10, tumor cells s.c., sacrificed on day 15
Protocol: (§3) 1 x 10^5 tumor cells/animal were inoculated s.c. on day 0 and the drug treatments were started on day 1. "N,N'-bis (3-aminopropyl)-1, 8-octanediamine was administered at different doses from day 1-10. The animals were sacrificed on day 15 and the tumors were dissected and weighed.

Lewis Lung Carcinoma = assay: Antitumor activity against Lewis lung carcinoma in mice, tumor weight; assay type: in vivo; details: day 1-10, tumor cells s.c., sacrificed on day 15
Protocol: as §3

NCCCNCCCN [Norspermidine, norspermidine]
Cell No. x 10^6 (HeLa Cells [1]; 0.005 mM): 0.70 x 10^6 | Mitotic Index (HeLa Cells [1]; 0.005 mM): 74.0 | Cell No. x 10^6 (HeLa Cells [1]; 0.05 mM): 0.64 x 10^6 | Mitotic Index (HeLa Cells [1]; 0.05 mM): 76.7 | Cell No. x 10^6 (HeLa Cells [1]; 0.5 mM): 0.70 x 10^6 | Mitotic Index (HeLa Cells [1]; 0.5 mM): 71.0 | inhibition at 5 µM (HeLa Cells [1]; Homo sapiens, HeLa, 0.005 mM, read-out: % Inhibition of Cell Growth): 61% | inhibition at 50 µM (HeLa Cells [1]; Homo sapiens, HeLa, 0.05 mM, read-out: % Inhibition of Cell Growth): 65% | inhibition at 500 µM (HeLa Cells [1]; Homo sapiens, HeLa, 0.5 mM, read-out: % Inhibition of Cell Growth): 61% | Polyamine Concentration Norspermidine (HeLa Cells [2]; 0.005 mM): 5.31 n·moles/10^6 cells | Polyamine Concentration Putriscine (HeLa Cells [2]; 0.005 mM): 0.026 n·moles/10^6 cells | Polyamine Concentration Spermidine (HeLa Cells [2]; 0.005 mM): 0.849 n·moles/10^6 cells | Polyamine Concentration Spermine (HeLa Cells [2]; 0.005 mM): 0.637 n·moles/10^6 cells | Polyamine Concentration Norspermidine (HeLa Cells [2]; 0.05 mM): 4.30 n·moles/10^6 cells | Polyamine Concentration Spermidine (HeLa Cells [2]; 0.05 mM): 0.433 n·moles/10^6 cells | Polyamine Concentration Spermine (HeLa Cells [2]; 0.05 mM): 0.452 n·moles/10^6 cells | Polyamine Concentration Norspermidine (HeLa Cells [2]; 0.5 mM): 6.32 n·moles/10^6 cells | Polyamine Concentration Spermidine (HeLa Cells [2]; 0.5 mM): 0.481 n·moles/10^6 cells | Polyamine Concentration Spermine (HeLa Cells [2]; 0.5 mM): 0.441 n·moles/10^6 cells | % T/C (L1210 Leukemia [3]): 147% | Survival (L1210 Leukemia [3]): 11.0 days | Polyamine Concentration Spermidine (L1210 Leukemia [4]): 0.69 n·moles/10^6 cells | Polyamine Concentration Spermine (L1210 Leukemia [4]): 0.77 n·moles/10^6 cells | % Inhibition (Lewis Lung Tumor (3LL)): 32% | Tumor Weight (gr) (Lewis Lung Tumor (3LL)): 3.50 gr | % T/C (B16 Melanoma [5]): 133% | Survival (B16 Melanoma [5]): 18.0 days

NCCCNCCCCCCCCNCCCN [N,N'-bis(3-aminopropyl)-1,8-octanediamine]
HeLa Cells Cell No. x 10^5 ([6]; 0.001 mM): 7.56 x 10^5 | HeLa Cells Cell No. x 10^5 ([6]; 0.01 mM): 5.9 x 10^5 | HeLa Cells Cell No. x 10^5 ([6]; 0.1 mM): 4.56 x 10^5 | HeLa Cells Cell No. x 10^5 ([6]; 1.0 mM): 2.82 x 10^5 | inhibition at 1 µM ([6]; Homo sapiens, HeLa, 0.001 mM, read-out: HeLa Cells % Inh. of Cell Growth): 39% | inhibition at 10 µM ([6]; Homo sapiens, HeLa, 0.01 mM, read-out: HeLa Cells % Inh. of Cell Growth): 50% | inhibition at 100 µM ([6]; Homo sapiens, HeLa, 0.1 mM, read-out: HeLa Cells % Inh. of Cell Growth): 62% | inhibition at 1000 µM ([6]; Homo sapiens, HeLa, 1.0 mM, read-out: HeLa Cells % Inh. of Cell Growth): 76% | B16 Melanoma Cell No. x 10^6 ([7]; 0.001 mM): 14.5 x 10^6 | B16 Melanoma Cell No. x 10^6 ([7]; 0.01 mM): 7.40 x 10^6 | B16 Melanoma Cell No. x 10^6 ([7]; 0.1 mM): 7.42 x 10^6 | B16 Melanoma Cell No. x 10^6 ([7]; 1.0 mM): 0 x 10^6 | inhibition at 1 µM ([7]; Mus musculus, B16, 0.001 mM, read-out: B16 Melanoma % Inh. of Cell Growth): 16% | inhibition at 10 µM ([7]; Mus musculus, B16, 0.01 mM, read-out: B16 Melanoma % Inh. of Cell Growth): 57% | inhibition at 100 µM ([7]; Mus musculus, B16, 0.1 mM, read-out: B16 Melanoma % Inh. of Cell Growth): 57% | inhibition at 1000 µM ([7]; Mus musculus, B16, 1.0 mM, read-out: B16 Melanoma % Inh. of Cell Growth): 100% | % T/C (L1210 Leukemia [8]; 6.26 mg/kg (footnote: i.p. at 6.25 mg/kg 4 times a day, every three hours, days 3-7)): 360.0% | % T/C (L1210 Leukemia [8]; 25 mg/kg: i.p. at 25 mg/Kg/day from day 1-7): 213.3% | B16 Melanoma % Inh. (B16 Melanoma [9]; 6.25 mg/kg): 66% | B16 Melanoma Tumor Weight (gms) (B16 Melanoma [9]; 6.25 mg/kg): 1.68 ± 0.37 gms | B16 Melanoma % Inh. (B16 Melanoma [9]; 12.5 mg/kg): 81% | B16 Melanoma Tumor Weight (gms) (B16 Melanoma [9]; 12.5 mg/kg): 0.95 ± 0.29 gms | Lewis Lung Carcinoma % Inh. (Lewis Lung Carcinoma; 6.25 mg/kg): 37% | Lewis Lung Carcinoma Tumor Weight (gms) (Lewis Lung Carcinoma; 6.25 mg/kg): 3.10 ± 0.39 gms | Lewis Lung Carcinoma % Inh. (Lewis Lung Carcinoma; 12.5 mg/kg): 61% | Lewis Lung Carcinoma Tumor Weight (gms) (Lewis Lung Carcinoma; 12.5 mg/kg): 1.94 ± 0.24 gms

NCCC[C@](N)(C(=O)O)C(F)F [DFMO, α-difluoromethyl ornithine, reference compound]
% T/C (L1210 Leukemia [3]): 107% | Survival (L1210 Leukemia [3]): 8.0 days | Polyamine Concentration Putrescine (L1210 Leukemia [4]): 0.015 n·moles/10^6 cells | Polyamine Concentration Spermidine (L1210 Leukemia [4]): 0.84 n·moles/10^6 cells | Polyamine Concentration Spermine (L1210 Leukemia [4]): 1.18 n·moles/10^6 cells | % Inhibition (Lewis Lung Tumor (3LL)): 4% | Tumor Weight (gr) (Lewis Lung Tumor (3LL)): 4.92 gr | % T/C (B16 Melanoma [5]): 129% | Survival (B16 Melanoma [5]): 17.5 days
